# Assay results as given in US5972953A, “Brain cell protective agent” (priority 1993, dated 1999).
# Read-outs that look alike come from different tables or passages of the source.
# Tested on: cultured nerve cells (cerebral cortex)
# Test: cells
# Assay type: cell-based, Wistar rat
# Conditions: Rattus norvegicus, Cerebral cortex neuron
# [1] = 10 mM glutamate, 24 hours at 37° C., LDH leakage, read-out: ED50 (the source's name)
Structure (SMILES),EC50 [1],"EC50 (24 h, read-out: ED50)"
"CC(C)CN(C(=O)CCCCC1CCCCC1)[C@@H]1CC[C@@]2(O)[C@H]3Cc4ccc(O)c5c4[C@@]2(CCN3CC2CC2)[C@H]1O5 [Compound 62, 17-cyclopropylmethyl-3,14β-dihydroxy-4,5α-epoxy-6β-(N-isobutyl-5-cyclohexylpentanoamido)morphinan]",0.14 µM,–
"CCN(C(=O)/C=C/c1cccc(C(F)(F)F)c1)[C@@H]1CC[C@@]2(O)[C@H]3Cc4ccc(O)c5c4[C@@]2(CCN3CC2CC2)[C@H]1O5 [Compound 63, 17-cyclopropylmethyl-3,14β-dihydroxy-4,5α-epoxy-6β-(N-ethyl-3-trifluoromethylcinnamarido)morphinan]",1.25 µM,–
"CC(C)N(C(=O)/C=C/c1cccc(C(F)(F)F)c1)[C@@H]1CC[C@@]2(O)[C@H]3Cc4ccc(O)c5c4[C@@]2(CCN3CC2CC2)[C@H]1O5 [Compound 64, 17-cyclopropylmethyl-3,14β-dihydroxy-4,5α-epoxy-6β-(N-isopropyl-3-trifluoromethylcinnamamido)morphinan]",0.69 µM,–
"CC(C)CN(C(=O)/C=C/c1cccc(C(F)(F)F)c1)[C@@H]1CC[C@@]2(O)[C@H]3Cc4ccc(O)c5c4[C@@]2(CCN3CC2CC2)[C@H]1O5 [Compound 65, 17-cyclopropylmethyl-3,14β-dihydroxy-4,5α-epoxy-6β-(N-isobutyl-3-trifluoromethylcinnamamido)morphinan]",–,0.31 µM
"CCCCN(C(=O)/C=C/c1cccc(C(F)(F)F)c1)[C@@H]1CC[C@@]2(O)[C@H]3Cc4ccc(O)c5c4[C@@]2(CCN3CC2CC2)[C@H]1O5 [Compound 66, 17-cyclopropylmethyl-3,14β-dihydroxy-4,5α-epoxy-6β-(N-butyl-3-trifluoromethylcinnamamido)morphinan]",0.33 µM,–
"O=C(/C=C/c1cccc(C(F)(F)F)c1)N(CCc1ccccc1)[C@@H]1CC[C@@]2(O)[C@H]3Cc4ccc(O)c5c4[C@@]2(CCN3CC2CC2)[C@H]1O5 [Compound 67, 17-cyclopropylmethyl-3,14β-dihydroxy-4,5α-epoxy-6β-[N-(2-phenethyl)-3-trifluoromethylcinnamamido]morphinan]",0.1 µM,–
"O=C(/C=C/c1cccc(C(F)(F)F)c1)N(CC1CCCCC1)[C@@H]1CC[C@@]2(O)[C@H]3Cc4ccc(O)c5c4[C@@]2(CCN3CC2CC2)[C@H]1O5 [Compound 68, 17-cyclopropylmethyl-3,14β-dihydroxy-4,5α-epoxy-6β-(N-cyclohexylmethyl-3-trifluoromethylcinnamamido)morphinan]",–,0.1 µM
"O=C(/C=C/c1cccc(C(F)(F)F)c1)N(CCCc1ccccc1)[C@@H]1CC[C@@]2(O)[C@H]3Cc4ccc(O)c5c4[C@@]2(CCN3CC2CC2)[C@H]1O5 [Compound 69, 17-cyclopropylmethyl-3,14β-dihydroxy-4,5α-epoxy-6β-[N-(3-phenylpropyl)-3-trifluoromethylcinnamamido]-morphinan]",0.16 µM,–
"CCCCCN(C(=O)CCCCCc1ccccc1)[C@@H]1CC[C@@]2(O)[C@H]3Cc4ccc(O)c5c4[C@@]2(CCN3CC2CC2)[C@H]1O5 [Compound 70, 17-cyclopropylmethyl-3,14β-dihydroxy-4,5α-epoxy-6β-(N-pentyl-6-phenylhexanoamido)morphinan]",0.19 µM,–
"O=C(CCCCCc1ccccc1)N(CC1CCCCC1)[C@@H]1CC[C@@]2(O)[C@H]3Cc4ccc(O)c5c4[C@@]2(CCN3CC2CC2)[C@H]1O5 [Compound 71, 17-cyclopropylmethyl-3,14β-dihydroxy-4,5α-epoxy-6β-(N-cyclohexylmethyl-6-phenylhexanoamido)morphinan]",0.1 µM,–
"O=C(CCCCCc1ccccc1)N(CCCc1ccccc1)[C@@H]1CC[C@@]2(O)[C@H]3Cc4ccc(O)c5c4[C@@]2(CCN3CC2CC2)[C@H]1O5 [Compound 72, 17-cyclopropylmethyl-3,14β-dihydroxy-4,5α-epoxy-6β-[N-(3-phenylpropyl)-6-phenylhexanoamido)morphinan]",0.11 µM,–
"O=C(CCCCCc1ccccc1)N(CCCCc1ccccc1)[C@@H]1CC[C@@]2(O)[C@H]3Cc4ccc(O)c5c4[C@@]2(CCN3CC2CC2)[C@H]1O5 [Compound 73, 17-cyclopropylmethyl-3,14β-dihydroxy-4,5α-epoxy-6β-[N-(4-phenylbutyl)-6-phenylhexanoamido)morphinan]",0.14 µM,–
"O=C(CCCCCc1ccccc1)N(CC(c1ccccc1)c1ccccc1)[C@@H]1CC[C@@]2(O)[C@H]3Cc4ccc(O)c5c4[C@@]2(CCN3CC2CC2)[C@H]1O5 [Compound 74, 17-cyclopropylmethyl-3,14β-dihydroxy-4,5α-epoxy-6β-[N-(2,2-diphenylethyl)-6-phenylhexanoamido)morphinan]",0.22 µM,–
"CCC/C=C/C(=O)N(C)[C@@H]1CC[C@@]2(O)[C@H]3Cc4ccc(O)c5c4[C@@]2(CCN3CC2CC2)[C@H]1O5 [Compound 75, 17-cyclopropylmethyl-3,14β-dihydroxy-4,5α-epoxy-6β-(N-methyl-trans-2-hexenoamido)morphinan]",16.5 µM,–
"CN(C(=O)/C=C/c1ccccc1)[C@@H]1CC[C@@]2(O)[C@H]3Cc4ccc(O)c5c4[C@@]2(CCN3CC2CC2)[C@H]1O5 [Compound 76, 17-cyclopropylmethyl-3,14β-dihydroxy-4,5α-epoxy-6β-(N-methylcinnamamido)morphinan]",6.79 µM,–
"CN(C(=O)/C=C/c1cccc(F)c1)[C@@H]1CC[C@@]2(O)[C@H]3Cc4ccc(O)c5c4[C@@]2(CCN3CC2CC2)[C@H]1O5 [Compound 79, 17-cyclopropylmethyl-3,14β-dihydroxy-4,5α-epoxy-6β-(N-methyl-3-fluorocinnamamido)morphinan]",–,12.2 µM
"CN(C(=O)CC(=O)c1ccccc1)[C@@H]1CC[C@@]2(O)[C@H]3Cc4ccc(O)c5c4[C@@]2(CCN3CC2CC2)[C@H]1O5 [Compound 80, 17-cyclopropylmethyl-3,14β-dihydroxy-4,5α-epoxy-6β-(N-methylbenzoylacetoamido) morphinan]",7.39 µM,–
"CN(C(=O)Cc1ccc2ccccc2c1)[C@@H]1CC[C@@]2(O)[C@H]3Cc4ccc(O)c5c4[C@@]2(CCN3CC2CC2)[C@H]1O5 [Compound 83, 17-cyclopropylmethyl-3,14β-dihydroxy-4,5α-epoxy-6β-(N-methyl-2-naphthylacetoamido)morphinan]",4.69 µM,–
"CN(C(=O)Cc1cccc(Cl)c1)[C@@H]1CC[C@@]2(O)[C@H]3Cc4ccc(O)c5c4[C@@]2(CCN3CC2CC2)[C@H]1O5 [Compound 85, 17-cyclopropylmethyl-3,14β-dihydroxy-4,5α-epoxy-6β-(N-methyl-3-chlorophenylacetoamido) morphinan]",4.22 µM,–
"CN(C(=O)Cc1cccc2ccccc12)[C@@H]1CC[C@@]2(O)[C@H]3Cc4ccc(O)c5c4[C@@]2(CCN3CC2CC2)[C@H]1O5 [Compound 86, 17-cyclopropylmethyl-3,14β-dihydroxy-4,5α-epoxy-6β-(N-methyl-1-naphthylacetoamido)morphinan]",7.36 µM,–
"CN(C(=O)Cc1csc2ccccc12)[C@@H]1CC[C@@]2(O)[C@H]3Cc4ccc(O)c5c4[C@@]2(CCN3CC2CC2)[C@H]1O5 [Compound 87, 17-cyclopropylmethyl-3,14β-dihydroxy-4,5α-epoxy-6β-(N-methyl-3-benzo[b]thienylacetoamrido)morphinan]",2.15 µM,–
"CN(C(=O)C1c2ccccc2-c2ccccc21)[C@@H]1CC[C@@]2(O)[C@H]3Cc4ccc(O)c5c4[C@@]2(CCN3CC2CC2)[C@H]1O5 [Compound 88, 17-cyclopropylmethyl-3,14β-dihydroxy-4,5α-epoxy-6β-(N-methyl-9-fluorenylamido) morphinan]",4.64 µM,–
"CN(C(=O)Cc1c(F)c(F)c(F)c(F)c1F)[C@@H]1CC[C@@]2(O)[C@H]3Cc4ccc(O)c5c4[C@@]2(CCN3CC2CC2)[C@H]1O5 [Compound 89, 17-cyclopropylmethyl-3,14β-dihydroxy-4,5α-epoxy-6β-(N-methyl-2,3,4,5,6-pentafluorophenylacetoamido)morphinan]",6.28 µM,–
"CN(C(=O)C#Cc1cccc(C(F)(F)F)c1)[C@@H]1CC[C@@]2(O)[C@H]3Cc4ccc(O)c5c4[C@@]2(CCN3CC2CC2)[C@H]1O5 [Compound 90, 17-Cyclopropylmethyl-3,14β-dihydroxy-4,5α-epoxy-6β-[N-methyl-3-(3-trifluoromethylphenyl)propiolamido]morphinan]",4.37 µM,–
"C=CCN1CC[C@]23c4c5ccc(O)c4O[C@H]2[C@H](N(C)C(=O)Cc2ccc(Cl)c(Cl)c2)CC[C@@]3(O)[C@H]1C5 [Compound 93, 17-allyl-3,14β-dihydroxy-4,5α-epoxy-6β-(N-methyl-3,4-dichlorophenylacetoamido)morphinan]",1.5 µM,–
"CN(Cc1ccccc1)[C@H]1CC[C@@]2(O)[C@H]3Cc4ccc(O)c5c4[C@@]2(CCN3CC2CC2)[C@H]1O5 [Compound 95, 17-cyclopropylmethyl-3,14β-dihydroxy-4,5α-epoxy-6α-(N-methylbenzylamino)morphinan]",0.56 µM,–
"CC(C)CN(CCCCCCc1ccccc1)[C@H]1CC[C@@]2(O)[C@H]3Cc4ccc(O)c5c4[C@@]2(CCN3CC2CC2)[C@H]1O5 [Compound 97, 17-cyclopropylmethyl-3,14β-dihydroxy-4,5α-epoxy-6α-(N-isobutyl-6-phenylhexylamino)morphinan]",0.16 µM,–
"CC(C)CN(CCCCCCc1ccccc1)[C@@H]1CC[C@@]2(O)[C@H]3Cc4ccc(O)c5c4[C@@]2(CCN3CC2CC2)[C@H]1O5 [Compound 98, 17-cyclopropylmethyl-3,14β-dihydroxy-4,5α-epoxy-6β-(N-isobutyl-6-phenylhexylamino)morphinan]",0.16 µM,–
"CN(C(=O)OCc1ccccc1)[C@H]1CC[C@@]2(O)[C@H]3Cc4ccc(O)c5c4[C@@]2(CCN3CC2CC2)[C@H]1O5 [Compound 99, 17-cyclopropylmethyl-3,14β-dihydroxy-4,5α-epoxy-6α-(N-methylbenzyloxycarbamido)morphinan]",0.4 µM,–
"COCCOC(=O)N(C)[C@H]1CC[C@@]2(O)[C@H]3Cc4ccc(O)c5c4[C@@]2(CCN3CC2CC2)[C@H]1O5 [Compound 100, 17-cyclopropylmethyl-3,14β-dihydroxy-4,5α-epoxy-6α-(N-methyl-2-methoxyethoxycarbamido)morphinan]",38.8 µM,–
